These results are taken from patent US6407079B1, “Pharmaceutical compositions containing drugs which are instable or sparingly soluble in water and methods for their preparation” (Janssen Pharmaceutica N.V., priority 1985, dated 2002).

Data set [1] in a line: physchem. The following applies: for solubility at 24 h: 25 °C, thermodynamic from solid; for Ratio S1:S2: 24 h, pH 6.6.
A short description of data set [2]: Solubility of drugs in 4% aqueous hydroxypropyl-methyl-β-cyclodextrin solution (Example 2B). The following applies: in water, 4% hydroxypropyl-methyl-β-cyclodextrin (DS 0.96; MS 0.43).
Data set [3] deals with rats. The class given is in vivo. On the procedure:
The acute intravenous toxicity of some β-cyclodextrins was tested on rats with the following results.

Data set [4] relates to human red blood cells. The experiment in a line: Haemolytic effect on human red blood cells. The class given is cell-based. The following applies: 30 minutes at 37° C., optical density at 540 nm. Here is the method:
The haemolytic effect of the methylether according to German Offenlegungsschrift 31 18 218 was compared to that of an ether used according to the invention. To this end 100 μl of a physiological sodium chloride solution with a cyclodextrin content of 10%, 800 μl of a buffer (400 mg MOPS, 36 mg Na2HPO4.2H2O, 1,6 g NaCl in 200 ml H2O) and 100 μl of a suspension of human red blood cells (three times washed with sodium chloride solution) were mixed for 30 minutes at 37° C. Thereafter the mixture was centrifuged and the optical density was determined at 540 nm.
a) 100 μl sodium chloride solution+buffer+0% haemolysis
b) 900 μl water→100% haemolysis

The conditions of data set [5]: 24 h.
Data set [6] in a line: Dissolution rate of medroxyprogesterone acetate from tablet (Example 5). The class given is physicochemical. The following applies: tablet with hydroxyethyl-β-cyclodextrin (MS 0.43), 5 mg drug per unit dose. Here is the method: In 100 ml water 7 g hydroxyethyl-β-cyclodextrin (MS 0.43) and 0.5 g medroxyprogesterone acetate were dissolved. The water was then evaporated in a rotation evaporator The residue (75 mg) was powdered and after addition of 366 mg calcium hydrogen phosphate.2H2O, 60 mg corn starch, 120 mg cellulose powder (microcrystalline), 4.2 mg highly dispersed silica (AEROSIL® 200) and 4.8 mg magnesium stearate tablets with a weight of 630.0 mg and comprising 5 mg drug per unit dose were made. The dissolution rate of the medroxyprogesterone acetate from this formulation is 21 times higher when compared to a tablet comprising the same inert ingredients without addition of the β-cyclodextrin ether.

The conditions of data set [7]: German Offenlegungsschrift 31 18 218; cited from earlier work.
A short description of data set [8]: Storage stability of indometacin solutions, HPLC (Example 3). The format is physicochemical. The following applies: for Indometacin content: 21° C. On the procedure:
In 10 ml phosphate buffer solution 0.7 g hydroxyethyl-β-cyclodextrin (MS 0.43) were dissolved together with 0.04 g indometacin at 25° C. until a clear solution was formed. […] (B). In a parallel test a saturated indometacin solution in a phosphate buffer solution (0.21 mg/ml) was stored under the same conditions (A). The great improved stability of the composition according to the invention is apparent.

For data set [9] the following is noted: cited from earlier work.
The mark [10] stands for this setting: pH 6.6, aqueous with cosolvent or surfactant or cyclodextrin.

Converted amounts (≈) assume the structure as drawn. Where two headings read alike, the source gives them in different places.

As for `CC(=O)[C@H]1CC[C@H]2[C@@H]3CCC4=CC(=O)CC[C@]4(C)[C@H]3CC[C@]12C` [Progesterone], the solubility at 24 h in data set [1] (pH 6.6, aqueous buffer) was 7.1 µg/mL (≈ 0.0226 mM); in data set [1] (setting [10]), 7690 µg/mL (≈ 24.5 mM). In addition, the “Ratio S1:S2” value in data set [1] is 1:1083.0.
Consider `CN(C)C(=O)C(CCN1CCC(O)(c2ccc(Cl)cc2)CC1)(c1ccccc1)c1ccccc1` [Loperamide], for which the “R, ratio of saturation solubility with and without β-cyclodextrin derivative” value in data set [2] is 62.
For the molecule “dimethyl-β-cyclodextrin [dimethyl-β-cyclodextrin (DS 2.0)]”, the “LD50 in rats (i.v.)” value in data set [3] is 200-207 mg/kg bodyweight. Besides, in [4], the “C50%, concentration at which 50% haemolysis occurred” value is given as 0.33% and the “C100%, concentration at which 100% haemolysis occurred” value is reported as 0.5%.
As for `CCC(C)n1ncn(-c2ccc(N3CCN(c4ccc(OCC5COC(Cn6cncn6)(c6ccc(Cl)cc6Cl)O5)cc4)CC3)cc2)c1=O` (stereo not shown) [Itraconazole], the “R, ratio of saturation solubility with and without β-cyclodextrin derivative” value in [5] (pH 2.5) is reported as 75; in [5] (pH 5) it was 96.
As to `C[C@@H]1CN([C@H]2CC[C@](C#N)(c3ccc(F)cc3)CC2)CC[C@]1(C(=O)O)c1ccccc1` [Levocabastine], the results for the “R, ratio of saturation solubility with and without β-cyclodextrin derivative” value in data set [5] (pH 7.4) and in data set [5] (pH 9.5) were 8 and 81, respectively.
Regarding `CCOC(=O)Nc1ccc(SC[C@@H]2CO[C@@](Cn3ccnc3)(c3ccc(Cl)cc3Cl)O2)cc1` [Tubulazole], in data set [2], the “R, ratio of saturation solubility with and without β-cyclodextrin derivative” value came to 43.
With `CC(=O)O[C@]1(C(C)=O)CC[C@H]2[C@@H]3C[C@H](C)C4=CC(=O)CC[C@]4(C)[C@H]3CC[C@@]21C` [medroxyprogesterone acetate], in data set [6], the “Dissolution rate, times higher than tablet without β-cyclodextrin ether” value was 21 times.
For the molecule `C[C@@H]1C[C@H]2[C@@H]3CCC4=CC(=O)C=C[C@]4(C)[C@@]3(F)[C@@H](O)C[C@]2(C)[C@@]1(O)C(=O)CO` [Dexamethasone], the solubility at 24 h in data set [1] (pH 6.6, aqueous buffer) stood at 83 µg/mL (≈ 0.211 mM); in data set [1] (setting [10]), 14300 µg/mL (≈ 36.4 mM).
Regarding `COC(=O)Nc1nc2cc(C(=O)c3ccc(F)cc3)ccc2[nH]1` [Flubendazole], in [5], the “R, ratio of saturation solubility with and without β-cyclodextrin derivative” value is on record as 30.
For the molecule `COc1ccc2c(c1)c(CC(=O)O)c(C)n2C(=O)c1ccc(Cl)cc1` [Indometacine], in data set [7], the “Increase of water solubility with the 2,6-di-O-methyl derivative of β-cyclodextrin” value is listed as 20.4 fold. For the same molecule, the solubility at 24 h in [1] (pH 6.6, aqueous buffer) stood at 190 µg/mL (≈ 0.531 mM); in data set [1] (setting [10]), 5720 µg/mL (≈ 16 mM). Further, in data set [1], the “Ratio S1:S2” value is listed as 1:30.1. For the same molecule, the Indometacin content turned out to be 100.1% in [8] (A: saturated solution in phosphate buffer, 0 weeks); 91.2% in data set [8] (A: saturated solution in phosphate buffer, 2 weeks); 79.1% in [8] (A: saturated solution in phosphate buffer, 4 weeks); 69.8% in [8] (A: saturated solution in phosphate buffer, 6 weeks); 64.8% in data set [8] (A: saturated solution in phosphate buffer, 8 weeks); 99.7% in data set [8] (B: with hydroxyethyl-β-cyclodextrin (MS 0.43) in phosphate buffer, 0 weeks). The Indometacin content in data set [8] (B: with hydroxyethyl-β-cyclodextrin (MS 0.43) in phosphate buffer, 2 weeks) is reported as 99.9%; in data set [8] (B: with hydroxyethyl-β-cyclodextrin (MS 0.43) in phosphate buffer, 4 weeks), 98.1%; in data set [8] (B: with hydroxyethyl-β-cyclodextrin (MS 0.43) in phosphate buffer, 6 weeks), 98.6%; in [8] (B: with hydroxyethyl-β-cyclodextrin (MS 0.43) in phosphate buffer, 8 weeks), 98.4%. Moreover, the “Concentration of saturated indometacin solution in phosphate buffer solution” value in data set [8] (phosphate buffer solution, no cyclodextrin) was found to be 210 µg/mL.
Regarding `CC(=O)N1CCN(c2ccc(OCC3COC(Cn4ccnc4)(c4ccc(Cl)cc4Cl)O3)cc2)CC1` (stereo not shown) [Ketoconazole], the “R, ratio of saturation solubility with and without β-cyclodextrin derivative” value in [5] came to 85.
In the case of `CCOC(=O)c1cncn1[C@H](C)c1ccccc1` [Etomidate], the “R, ratio of saturation solubility with and without β-cyclodextrin derivative” value in [2] stood at 8.5.
On to `OC[C@H]1O[C@@H]2O[C@H]3[C@H](O)[C@@H](O)[C@@H](O[C@H]4[C@H](O)[C@@H](O)[C@@H](O[C@H]5[C@H](O)[C@@H](O)[C@@H](O[C@H]6[C@H](O)[C@@H](O)[C@@H](O[C@H]7[C@H](O)[C@@H](O)[C@@H](O[C@H]8[C@H](O)[C@@H](O)[C@@H](O[C@H]1[C@H](O)[C@H]2O)O[C@@H]8CO)O[C@@H]7CO)O[C@@H]6CO)O[C@@H]5CO)O[C@@H]4CO)O[C@@H]3CO` [β-cyclodextrin], for which the “LD50 in rats (i.v.)” value in data set [3] was 453 mg/kg bodyweight. In addition, in data set [9], the Water solubility is given as 1.8 g/100 ml.
In the case of `COc1cc(N)c(Cl)cc1C(=O)NC1CCN(CCCOc2ccc(F)cc2)CC1OC` (stereo not shown) [Cisapride], in data set [5], the “R, ratio of saturation solubility with and without β-cyclodextrin derivative” value came out at 3.
Regarding `Fc1ccc(C(c2ccc(F)cc2)N2CCN(C/C=C/c3ccccc3)CC2)cc1` [Flunarizine], the “R, ratio of saturation solubility with and without β-cyclodextrin derivative” value in data set [5] worked out at 18.

The solubility is the concentration that dissolves in the medium under given conditions. Low readings indicate little dissolved substance, high ones much dissolved substance.
